Columns and labels:
143B = assay: Cell cycle analysis by propidium iodide staining, 143B; assay type: cell-based, human; conditions: treated 24 hours
endothelial HUVEC cells = assay: Angiogenesis assay: endothelial tube formation on matrigel; assay type: cell-based, human; conditions: 0.5 μM and 1 μM, 5 hours
MG63 cells = assay: Wound healing scratch assay, MG63; assay type: cell-based, human; conditions: MG63 cell line, Figure 2d
HOS, 143B and MG63 cells = assay type: cell-based, human; conditions: for apoptotic activity as compared to control: antagonist alone, supplementary tables 2–4; for induction of apoptosis as compared to no treatment control: all three cell lines, 12.5 μM
CB1 = conditions: cited from earlier work
143B cells = assay: Wound healing scratch assay, 143B; assay type: cell-based, human; conditions: 143B cell line, with rimonabant, Supplementary Figure S4
[1] = biological target: T1, Fatty acid amide hydrolase (FAAH) (Sus scrofa, UniProt Q9TUI8); conditions: cited from earlier work
T1 sequence (Q9TUI8 1-579): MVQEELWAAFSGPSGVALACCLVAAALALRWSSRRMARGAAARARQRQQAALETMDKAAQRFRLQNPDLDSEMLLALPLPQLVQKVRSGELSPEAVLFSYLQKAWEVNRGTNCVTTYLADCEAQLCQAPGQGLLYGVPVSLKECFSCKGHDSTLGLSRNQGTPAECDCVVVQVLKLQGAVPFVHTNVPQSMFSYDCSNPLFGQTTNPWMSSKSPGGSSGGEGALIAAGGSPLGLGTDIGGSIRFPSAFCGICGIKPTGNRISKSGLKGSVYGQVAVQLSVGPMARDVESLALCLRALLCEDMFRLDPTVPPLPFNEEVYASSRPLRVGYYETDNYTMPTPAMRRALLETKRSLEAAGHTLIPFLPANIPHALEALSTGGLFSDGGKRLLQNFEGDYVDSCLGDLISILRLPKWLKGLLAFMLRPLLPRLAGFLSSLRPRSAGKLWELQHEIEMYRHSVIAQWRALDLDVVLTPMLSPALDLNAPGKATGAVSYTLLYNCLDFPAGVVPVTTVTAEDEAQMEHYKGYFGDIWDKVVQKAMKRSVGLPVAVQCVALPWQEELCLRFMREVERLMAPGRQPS

CC/C=C\C/C=C\C/C=C\CC1OC1C/C=C\C/C=C\CCC(=O)NCCCO (stereo not drawn) [10,11-EDP-NA, (4Z,7Z)-N-(3-hydroxypropyl)-9-(3-((2Z,5Z,8Z)-undeca-2,5,8-trien-1-yl)oxiran-2-yl)nona-4,7-dienamide]
percentage of cells in S (143B): slight suppression
tube formation as compared to the vehicle control (endothelial HUVEC cells): Restriction of tube formation
restriction in wound healing as compared to the control (MG63 cells): slightly poorer than the control

COc1ccc(C(=O)c2c(C)n(CCN3CCOCC3)c3cc(I)ccc23)cc1 [AM 630]
apoptotic activity as compared to control (HOS, 143B and MG63 cells): very limited apoptotic activity

CC/C=C\C/C=C\C/C=C\CC1OC1C/C=C\C/C=C\CCC(=O)NC(C)CO (stereo not drawn) [10,11-EDP-IA, (4Z,7Z)-N-(1-hydroxypropan-2-yl)-9-(3-((2Z,5Z,8Z)-undeca-2,5,8-trien-1-yl)oxiran-2-yl)nona-4,7-dienamide]
tube formation as compared to the vehicle control (endothelial HUVEC cells): Restriction of tube formation
restriction in wound healing as compared to the control (MG63 cells): slightly poorer than the control

CCCCCC=CCC=CCC=CCC=CCCCC(=O)NC(C)CO (single isomer, unassigned) [S isomers]
CB1 binding, fold lower as compared to AEA (CB1): 2 fold

CC/C=C\C/C=C\C/C=C\C/C=C\C/C=C\C/C=C\CCC(=O)NCCO [DHEA, docosahexaenoylethanolamide]
induction of apoptosis as compared to no treatment control (HOS, 143B and MG63 cells): no induction of apoptosis

CC/C=C\C/C=C\C/C=C\C/C=C\C/C=C\C/C=C\CCC(=O)O [DHA, docosahexaenoic acid]
induction of apoptosis as compared to no treatment control (HOS, 143B and MG63 cells): no induction of apoptosis

CC/C=C\C/C=C\C/C=C\CC1OC1C/C=C\C/C=C\CCC(=O)NCCO (stereo not drawn) [10,11-EDP-EA, (4Z,7Z)-N-(2-hydroxyethyl)-9-(3-((2Z,5Z,8Z)-undeca-2,5,8-trien-1-yl)oxiran-2-yl)nona-4,7-dienamide]
reduction of cell migration in presence of CB1 receptor antagonist (143B cells): completely abolished
tube formation as compared to the vehicle control (endothelial HUVEC cells): Restriction of tube formation

CCC1OC1C/C=C\C/C=C\C/C=C\C/C=C\C/C=C\CCC(=O)NCCO (stereo not drawn) [19,20-EDP-EA]
rate of hydrolysis [1]: 150 pmol min−1 mg protein−1

CCCCC/C=C\C/C=C\C/C=C\C/C=C\CCCC(=O)O [AA, arachidonic acid]
induction of apoptosis as compared to no treatment control (HOS, 143B and MG63 cells): no induction of apoptosis

CCCCC/C=C\C/C=C\C/C=C\C/C=C\CCCC(=O)NCCO [AEA, arachidonoyl ethanolamide]
induction of apoptosis as compared to no treatment control (HOS, 143B and MG63 cells): no induction of apoptosis

CC/C=C\C/C=C\C/C=C\CC1OC1C/C=C\C/C=C\CCC(=O)NC1CC1 (stereo not drawn) [10,11-EDP-CA, (4Z,7Z)-N-cyclopropyl-9-(3-((2Z,5Z,8Z)-undeca-2,5,8-trien-1-yl)oxiran-2-yl)nona-4,7-dienamide]
tube formation as compared to the vehicle control (endothelial HUVEC cells): Restriction of tube formation
restriction in wound healing as compared to the control (MG63 cells): comparable to 10,11-EDP-EA

CCCCCC=CCC=CCC=CCC=CCCCC(=O)NC(C)CO (single isomer, unassigned) [R isomer]
CB1 binding, fold higher as compared to AEA (CB1): 4 fold

Cc1c(C(=O)NN2CCCCC2)nn(-c2ccc(Cl)cc2Cl)c1-c1ccc(Cl)cc1 [rimonabant]
apoptotic activity as compared to control (HOS, 143B and MG63 cells): very limited apoptotic activity

Source: paper PMC7202735 (Journal of medicinal chemistry, 2018)
